Assay results reported in patent publication US12679878B2, “CRF2 receptor agonists and their use in therapy” (SANOFI, priority 2020, dated 2026).
Converted amounts (≈) assume the structure as drawn. Starred links: 1 amine or outer side, 2 acyl side, 3 side chain; linkers in the order of their positions; H or OH if unused. Non-standard residues stand in square brackets, D forms with d. Residues, ends and D or L forms follow the SMILES beside them. Groups on a side chain read outwards from the residue. *: point of attachment. C18 diacid = O=C(O)CCCCCCCCCCCCCCCCC(=O)*; γGlu = O=C(O)[C@H](CCC(=O)[*:2])N[*:1]; Palmitoyl = CCCCCCCCCCCCCCCC(=O)*; AEEA = NCCOCCOCC(=O)O; Aib = CC(C)(N)C(=O)O

Experiments:
[1] = biological target: T1, human CRF2α receptor (Homo sapiens, UniProt Q13324); test: cAMP agonism at human CRF2 α receptor in TeloHEAC cells (Example 7); type: cell-based; details: cAMP HTRF, TeloHEAC cells stably expressing human CRF2 α, 0% HSA; read-out: EC50 [nM], 0% HSA
T1 construct: expressed in transfected cells; host or cells: TeloHEAC
T1 sequence (Q13324 1-411): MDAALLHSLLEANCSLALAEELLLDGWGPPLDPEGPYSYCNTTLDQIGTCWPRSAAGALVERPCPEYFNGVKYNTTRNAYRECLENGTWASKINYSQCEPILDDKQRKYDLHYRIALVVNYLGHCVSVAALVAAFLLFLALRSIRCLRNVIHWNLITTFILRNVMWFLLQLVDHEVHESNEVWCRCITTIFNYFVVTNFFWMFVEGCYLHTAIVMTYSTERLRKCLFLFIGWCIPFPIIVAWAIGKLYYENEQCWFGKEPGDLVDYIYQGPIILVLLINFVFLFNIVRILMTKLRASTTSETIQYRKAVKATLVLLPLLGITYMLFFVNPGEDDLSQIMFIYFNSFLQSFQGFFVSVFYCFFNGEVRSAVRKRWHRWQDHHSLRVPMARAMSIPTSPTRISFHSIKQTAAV
Outline: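 Steps: thaw and wash cells; suspend in 1×HBSS, 20 mM HEPES, 0 or 0.1% HSA, 2 mM IBMX; add compound, 30 min RT; lyse with HTRF reagents, 1 h; read 665/620 nm. EC50 calculated, E% versus 1000 nM UCN2.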

[2] = test system: rat CRF2R α receptor; test: cAMP agonism at rat CRF2R α receptor in A7R5 rat aortic smooth muscle cells (Example 8); type: cell-based; details: cAMP HTRF, A7R5 rat aortic smooth muscle cell line, 0% HSA
Outline: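 Potency (EC50) is the concentration reaching half-maximal activation, with responses scaled so that 1000 nM urocortin 2 equals 100%. Intracellular cAMP was quantified by homogeneous time-resolved fluorescence at 665/620 nm, 1 h after lysis-buffer reagents. Compound stimulation lasted 30 min at room temperature on 2000 IBMX-treated (2 mM) cells per well in HEPES-buffered HBSS.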

[3] = Solubility in buffer systems by UPLC-UV (Example 13); type: physicochemical
Experimental: Prior to performing the solubility measurements, the purity of the compounds was determined through UPLC/MS. […] Therefore, solutions from solid samples were prepared in a buffer system with a concentration of 10 mg/mL compound based on the previously determined % purity.
UPLC-UV was performed after 1 hour of gentle agitation from the supernatant, which was obtained after 15 minutes of centrifugation at 2500 RCF (relative centrifugal acceleration). The solubility was determined by the comparison of the UV peak area of a 2 μL-injection of a buffered sample diluted 1:10 with a standard curve of a reference compound with known concentration. The different UV extinction coefficients of sample and reference compound were calculated based on the different amino acid sequences and considered in the concentration calculation.

[4] = biological target: T2, CRF1R receptor (Homo sapiens, UniProt P34998); test: cAMP activity at anti-target CRF1R, CRF1R-overexpression CHO cell line (Example 9); type: cell-based; details: CRF1R-overexpression CHO cell line; for Emax: read-out: Emax (%)
T2 construct: host or cells: CHO-K1 clone 2
T2 sequence (P34998 24-415): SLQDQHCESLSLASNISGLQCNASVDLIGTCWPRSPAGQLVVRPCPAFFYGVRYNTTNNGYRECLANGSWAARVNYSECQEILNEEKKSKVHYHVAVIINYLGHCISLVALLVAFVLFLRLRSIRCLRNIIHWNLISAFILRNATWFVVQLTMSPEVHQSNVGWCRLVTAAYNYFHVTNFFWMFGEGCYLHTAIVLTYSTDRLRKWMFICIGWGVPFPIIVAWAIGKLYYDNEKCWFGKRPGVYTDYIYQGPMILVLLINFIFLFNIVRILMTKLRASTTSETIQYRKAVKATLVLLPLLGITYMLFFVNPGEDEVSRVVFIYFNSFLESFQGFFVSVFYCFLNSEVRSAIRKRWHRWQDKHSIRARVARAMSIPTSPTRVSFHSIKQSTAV
Outline: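 Using thawed CRF1R-overexpressing CHO cells at 2000 per well, compound is applied for 30 min at RT in HBSS/HEPES buffer with IBMX. Cellular cAMP content is determined via HTRF, and percent activity is calculated against 1000 nM UCN2 defined as 100%.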

[5] = pH 4.5, Solubility in Buffer A [mg/ml]
[6] = pH 4.5, Solubility in Buffer B [mg/ml]
[7] = pH 7.4, Solubility in Buffer C [mg/ml]

EC50 [1] [nM] | EC50 [2] [nM] | solubility at 1 h [3, 5] [µg/mL] | solubility at 1 h [3, 6] [µg/mL] | Emax [4] [%] | solubility at 1 h [3, 7] [µg/mL] | EC50 ([4]; 0% HSA) [nM] | SMILES
0.03 | 0.02 | > 10200 | > 9300 |  |  |  | CCCCCCCCCCCCCCCC(=O)N[C@@H](CCC(=O)NCCCC[C@H](NC(=O)[C@H](CC(C)C)NC(=O)[C@H](CCCCN)NC(=O)[C@@H](NC(=O)[C@@H]1CCCN1C(=O)[C@H](NC(=O)[C@H](CC(=O)O)NC(=O)[C@H](CC(C)C)NC(=O)[C@H](CO)NC(=O)[C@H](CC(C)C)NC(=O)[C@@H](NC(=O)[C@@H](N)[C@@H](C)CC)C(C)C)C(C)C)[C@@H](C)O)C(=O)N[C@@H](CCC(N)=O)C(=O)N[C@@H](CCCCN)C(=O)N[C@@H](CC(C)C)C(=O)N[C@@H](CC(C)C)C(=O)N[C@@H](CCCCN)C(=O)N[C@@H](CCC(N)=O)C(=O)N[C@@H](CCC(=O)O)C(=O)N[C@@H](CCCNC(=N)N)C(=O)N[C@@H](CCC(N)=O)C(=O)N[C@@H](CCCNC(=N)N)C(=O)N[C@@H](CCCCN)C(=O)N[C@@H](CCC(=O)O)C(=O)N[C@@H](CCCNC(=N)N)C(=O)N[C@@H](CCC(=O)O)C(=O)N[C@@H](CCC(N)=O)C(=O)N[C@@H](C)C(=O)N[C@@H](CCC(=O)O)C(=O)N[C@@H](CCCCN)C(=O)N[C@@H](CC(N)=O)C(=O)N[C@@H](CCCCN)C(=O)N[C@@H](CCCNC(=N)N)C(=O)N[C@H](C(=O)N[C@@H](CC(C)C)C(=O)N[C@@H](CCC(=O)O)C(=O)N[C@@H](CCCNC(=N)N)C(=O)N[C@H](C(N)=O)C(C)C)[C@@H](C)CC)C(=O)O [compound 18] (H-IVLSLD[dV]PTKLK([γGlu-Palmitoyl])QKLLKQERQRKEREQAEKNKRILERV-NH2)
0.01 |  | > 10200 | > 10800 | 57.4 | 5700 (≈ 1150 µM) |  | CCCCCCCCCCCCCCCC(=O)N[C@@H](CCC(=O)NCCCC[C@H](NC(=O)[C@H](CC(C)C)NC(=O)[C@H](CCCCN)NC(=O)[C@@H](NC(=O)[C@@H]1CCCN1C(=O)[C@H](NC(=O)[C@H](CC(=O)O)NC(=O)[C@H](CC(C)C)NC(=O)[C@H](CO)NC(=O)[C@H](CC(C)C)NC(=O)[C@@H](NC(=O)[C@@H](N)[C@@H](C)CC)C(C)C)C(C)C)[C@@H](C)O)C(=O)N[C@@H](CCC(N)=O)C(=O)N[C@@H](CCCCN)C(=O)N[C@@H](CC(C)C)C(=O)N[C@@H](CC(C)C)C(=O)N[C@@H](CCCCN)C(=O)N[C@@H](CCC(N)=O)C(=O)N[C@@H](CCC(=O)O)C(=O)N[C@@H](CCCNC(=N)N)C(=O)N[C@@H](CCC(N)=O)C(=O)N[C@@H](CCCNC(=N)N)C(=O)NC(C)(C)C(=O)N[C@@H](CCC(=O)O)C(=O)N[C@@H](CCCNC(=N)N)C(=O)N[C@@H](CCC(=O)O)C(=O)N[C@@H](CCC(N)=O)C(=O)N[C@@H](C)C(=O)N[C@@H](CCC(=O)O)C(=O)N[C@@H](CCCCN)C(=O)N[C@@H](CC(N)=O)C(=O)N[C@@H](CCCCN)C(=O)N[C@@H](CCCNC(=N)N)C(=O)N[C@H](C(=O)N[C@@H](CC(C)C)C(=O)N[C@@H](CCC(=O)O)C(=O)N[C@@H](CCCNC(=N)N)C(=O)N[C@H](C(N)=O)C(C)C)[C@@H](C)CC)C(=O)O [compound 19] (H-IVLSLD[dV]PTKLK([γGlu-Palmitoyl])QKLLKQERQR[Aib]EREQAEKNKRILERV-NH2; N-terminus assumed)
0.01 |  |  |  | 27 | 8600 (≈ 1730 µM) | > 1000 | CCCCCCCCCCCCCCCC(=O)N[C@@H](CCC(=O)NCCCC[C@H](NC(=O)[C@H](CC(C)C)NC(=O)[C@H](CCCCN)NC(=O)[C@@H](NC(=O)[C@@H]1CCCN1C(=O)[C@H](NC(=O)[C@H](CC(=O)O)NC(=O)[C@H](CC(C)C)NC(=O)[C@H](CO)NC(=O)[C@H](CC(C)C)NC(=O)[C@@H](NC(=O)[C@@H](N)[C@@H](C)CC)C(C)C)C(C)C)[C@@H](C)O)C(=O)N[C@@H](CCC(N)=O)C(=O)N[C@@H](CCCCN)C(=O)N[C@@H](CC(C)C)C(=O)N[C@@H](CC(C)C)C(=O)N[C@@H](CCCCN)C(=O)N[C@@H](CCC(N)=O)C(=O)N[C@@H](CCC(=O)O)C(=O)N[C@@H](CCCNC(=N)N)C(=O)N[C@@H](CCC(N)=O)C(=O)N[C@@H](CCCNC(=N)N)C(=O)N[C@@H](CCCCN)C(=O)N[C@@H](CCC(=O)O)C(=O)N[C@@H](CCCNC(=N)N)C(=O)N[C@@H](CCC(=O)O)C(=O)N[C@@H](CCC(N)=O)C(=O)N[C@@H](C)C(=O)N[C@@H](CCC(=O)O)C(=O)N[C@@H](CCCCN)C(=O)N[C@@H](CC(N)=O)C(=O)N[C@H](C(=O)N[C@@H](CCCNC(=N)N)C(=O)N[C@H](C(=O)N[C@@H](CC(C)C)C(=O)N[C@@H](CCC(=O)O)C(=O)N[C@@H](CCCNC(=N)N)C(=O)N[C@H](C(N)=O)C(C)C)[C@@H](C)CC)C(C)C)C(=O)O [compound 32] (H-IVLSLD[dV]PTKLK([γGlu-Palmitoyl])QKLLKQERQRKEREQAEKNVRILERV-NH2)
1.9 | 11.5 |  |  |  | > 9800 |  | CC[C@H](C)[C@H](N)C(=O)N[C@H](C(=O)N[C@@H](CC(C)C)C(=O)N[C@@H](CO)C(=O)N[C@@H](CC(C)C)C(=O)N[C@@H](CC(=O)O)C(=O)N[C@H](C(=O)N1CCC[C@H]1C(=O)N[C@H](C(=O)N[C@@H](CCCCN)C(=O)N[C@@H](CC(C)C)C(=O)N[C@@H](CCCCNC(=O)COCCOCCNC(=O)COCCOCCNC(=O)CC[C@H](NC(=O)CCCCCCCCCCCCCCCCC(=O)O)C(=O)O)C(=O)N[C@@H](CCC(N)=O)C(=O)N[C@H](C(=O)N[C@@H](CC(C)C)C(=O)N[C@@H](CC(C)C)C(=O)N[C@@H](CCC(=O)O)C(=O)N[C@@H](CCC(N)=O)C(=O)N[C@@H](C)C(=O)N[C@@H](CCCCN)C(=O)N[C@@H](CCC(N)=O)C(=O)N[C@@H](CCCCN)C(=O)N[C@@H](CCCCN)C(=O)N[C@@H](CC(C)C)C(=O)N[C@@H](CCCNC(=N)N)C(=O)N[C@@H](C)C(=O)N[C@@H](CCC(N)=O)C(=O)N[C@@H](C)C(=O)N[C@@H](CCC(=O)O)C(=O)N[C@H](C(=O)N[C@@H](CC(N)=O)C(=O)N[C@H](C(=O)N[C@@H](CCCNC(=N)N)C(=O)N[C@H](C(=O)N[C@@H](CC(C)C)C(=O)N[C@@H](CCC(=O)O)C(=O)N[C@@H](CCCNC(=N)N)C(=O)N[C@H](C(N)=O)C(C)C)[C@@H](C)CC)C(C)C)[C@@H](C)O)[C@@H](C)CC)[C@@H](C)CC)C(C)C)C(C)C [compound 43] (H-IVLSLDVPIKLK([AEEA-AEEA-γGlu-C18 diacid])QILLEQAKQKKLRAQAETNVRILERV-NH2; N-terminus assumed)
